Key:
[1] = PK studies in beagle dogs; type: in vivo; conditions: dog, in vivo; beagle dogs, same dose (2 mg/kg); prior preliminary experiment by the team, unpublished results; read-out: absolute bioavailability
Procedure: For the PK studies in rats and dogs, a total of 18 SD rats and 15 male beagle dogs were randomly divided into three groups, with six rats or five dogs per group, respectively. Prior to the experiments, all animals underwent a 12-h fasting period, while having free access to water. The animals were administered single oral doses of ammoxetine in three different dose levels: 8 mg/kg, 20 mg/kg, and 50 mg/kg for rats, and 2 mg/kg, 5 mg/kg, and 12.5 mg/kg for dogs, representing low, medium, and high doses. Serial blood samples were collected from the rats at 0, 2, 5, 15, and 30 min, as well as 1, 2, 4, 6, 8, 12, and 24 h post-dosing. For the dogs, blood samples were collected at 0, 5, 15, 30, and 45 min, as well as 1, 2, 4, 6, 8, 12, and 24 h post-dosing. Approximately 0.3 mL of blood was collected from the rats, while 2 mL of blood was collected from the dogs. The blood samples were collected into heparinized tubes. Following centrifugation, plasma samples were obtained and stored at −30°C until further analysis.
For the absolute bioavailability (F, %) study in dogs, the dogs initially received a single gastric gavage of a low dose (2 mg/kg) of ammoxetine, followed by a 1-week washout period. After the washout, the same dose of ammoxetine was administered intravenously (i.v.). To assess the effects of nonfasting on ammoxetine PK, dogs that received a medium dose (5 mg/kg) of ammoxetine via gastric gavage underwent a radical washout period of 1 week. Subsequently, they were administered the same dose of ammoxetine via gastric gavage under nonfasting conditions. To compare sex differences in ammoxetine PK, an additional five female beagle dogs were administered a medium dose (5 mg/kg) of ammoxetine via gastric gavage after a 12-h overnight fast. Blood samples (2 mL) were collected from these dogs into heparinized tubes at predose and at specified time points: 5, 15, 30, and 45 min, as well as 1, 2, 4, 6, 8, 12, and 24 h postdose. For the repeat-dose study, after completing blood collection during the initial administration, dogs receiving a single gastric gavage of a medium dose (5 mg/kg) of ammoxetine under fasting conditions were subsequently orally dosed with seven repeat doses of ammoxetine (5 mg/kg) every 12 h. Trough blood samples were collected before the fourth to last administration to ensure steady-state blood concentrations (C ss ) were achieved. Approximately 2 mL of blood was collected at specified time points after the last dose and transferred into heparinized tubes. All blood samples were then centrifuged at 4,000 r/min for 20 min to obtain plasma samples, which were stored at −30°C until analysis.
To determine the concentration of ammoxetine, 100 μL of L-phencynonate (IS, 50 ng/mL) and 300 μL of methanol were added to 100 μL of plasma samples from rats or dogs. After thorough vortexing, the mixture was centrifuged at 13,800×g for 10 min. The supernatants were then subjected to analysis using LC-MS-MS methods. PK parameters were calculated using DAS (Drug And Statistics for Windows) version 2.0, developed by the Shanghai University of Traditional Chinese Medicine, Shanghai, China. The F was determined by comparing the plasma area under the concentration-time curve (AUC) values after oral (p.o.) and intravenous (i.v.) administration of ammoxetine. F was calculated using the formula: F=AUCp.o./AUCi.v.×100% . Statistical analyses were performed using OriginPro 8.6 software. Paired sample or student’s t-test, as well as one-way ANOVA, were employed to compare the means of two or three groups, with a significance level set at p < 0.05.

[2] = system: P-gp; conditions: ref Ruike et al., 2010; cited from earlier work

Q: Which bioavailability [1] does the source give for `CNCC[C@H](Oc1cccc2ccccc12)c1cccs1` [duloxetine, reference compound] here?
A: The bioavailability was ~33%.

Q: What about the “action on P-gp” value [2] of the same compound?
A: Its value is “P-gp inhibitor”.

Source: article PMC11579541, “In vitro, in vivo, and in silico approaches for evaluating the preclinical DMPK profiles of ammoxetine, a novel chiral serotonin and norepinephrine reuptake inhibitor” (Frontiers in Pharmacology, 2024)
